Experimental data as given in ChEMBL document CHEMBL1201862, “PubChem BioAssay data set” (2004).
The source made the active and inactive calls.

Assays:
[1] = inhibitors of firefly luciferase expression or activity, dose response, H4 neuroglioma cells, luminescence (AID 1990); type: functional, cell-based
[2] = Luminescence Cell-Based Dose Response HTS to Identify Inhibitors of 5'UTR Stem-Loop Driven Prion Protein mRNA Translation in H4 Neuroglioblastoma Cells. [Related pubchem assays: 1827 (Project Summary), 1813 (Primary HTS)]; type: functional
[3] = inhibitors of SNCA 5'UTR-driven reporter translation, confirmation, H4 neuroglioma cells, luminescence (AID 1988); type: functional, cell-based
[4] = cytotoxicity in HEK-293T cells, dose response, cytotoxicity control for BCR NF-kB inhibitor project, luminescence, B-cell screen hits (AID 489021); type: functional, cell-based;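 further: HEK-293T cells carrying an NF-kB luciferase reporter; cells exposed to compound for about 14 hours before viability readout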
[5] = target: T1, Heat shock factor protein 1 (Mus musculus, UniProt P38532); assay: inhibition of MG132-induced HSE-luciferase signal, confirmation, cell-based, NIH3T3, luminescence, dose retest (AID 2382); type: functional;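 further: NIH3T3 fibroblasts with HSF1-driven luciferase reporter stressed by proteasome inhibitor MG132; luminescence from HSF1-driven luciferase expression after 8 hours of MG132 stress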
T1 sequence (P38532 whole entry): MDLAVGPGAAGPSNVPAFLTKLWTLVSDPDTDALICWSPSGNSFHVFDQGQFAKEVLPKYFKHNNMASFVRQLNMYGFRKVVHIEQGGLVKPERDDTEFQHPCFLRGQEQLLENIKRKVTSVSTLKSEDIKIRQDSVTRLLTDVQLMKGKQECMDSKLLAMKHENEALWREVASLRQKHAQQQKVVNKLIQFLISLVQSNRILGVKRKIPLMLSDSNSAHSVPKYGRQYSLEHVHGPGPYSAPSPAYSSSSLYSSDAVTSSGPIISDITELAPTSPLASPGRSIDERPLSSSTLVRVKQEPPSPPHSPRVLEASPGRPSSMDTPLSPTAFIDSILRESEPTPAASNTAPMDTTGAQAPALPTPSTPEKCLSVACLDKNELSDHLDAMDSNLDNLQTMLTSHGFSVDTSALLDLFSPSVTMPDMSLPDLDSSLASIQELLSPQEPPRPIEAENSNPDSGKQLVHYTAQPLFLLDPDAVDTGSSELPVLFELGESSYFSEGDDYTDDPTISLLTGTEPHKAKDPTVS

[6] = LGR2 antagonists, dose response, cell-based, HEK293, CRE-luciferase reporter, cherry pick, set 2 (AID 743343); type: functional;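 further: transfected cells were stimulated with diluted bursicon conditioned medium after compound addition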
[7] = MC4R antagonists, dose response, counter-screen for LGR2 antagonist project, cell-based, plate reader, cherry pick (AID 743444); type: functional;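 further: transfected HEK 293 cells stimulated with alpha-MSH peptide; potency of inhibitors of the alpha-MSH evoked signal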
Fatty acid synthase [8] = target: T2, Fatty acid synthase (Homo sapiens, UniProt P49327); assay: FAS thioesterase domain inhibitors, dose response, biochemical, endpoint fluorescence intensity, uHTS hits (AID 624327); type: functional;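 further: fluorescence from hydrolysis of an O-methyl fluorescein acyl ester substrate by the enzyme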
Fatty acid synthase [9] = target: T2, Fatty acid synthase; assay: FAS thioesterase domain inhibitors, dose response, biochemical, kinetic fluorescence intensity (AID 624326); type: functional;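 further: rate of fluorescence rise from hydrolysis of a fluorogenic O-methyl fluorescein ester substrate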
[10] = THP-1 cell cytotoxicity, dose response, cytotoxicity control for non-replicating M. tuberculosis project (AID 489025); type: functional
[11] = target: T3, Oxysterols receptor LXR-beta (Homo sapiens, UniProt P55055); type: functional, cell-based;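 further: agonist activity at LXR measured by a cell-based luminescence readout across a dose range, run as a counterscreen for daf-12 agonists; HEK293 cells with Gal4-LXR fusion and GAL4-driven luciferase reporter; potency for activation of Gal4-LXR reporter so compounds are agonists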
T3 sequence (P55055 whole entry): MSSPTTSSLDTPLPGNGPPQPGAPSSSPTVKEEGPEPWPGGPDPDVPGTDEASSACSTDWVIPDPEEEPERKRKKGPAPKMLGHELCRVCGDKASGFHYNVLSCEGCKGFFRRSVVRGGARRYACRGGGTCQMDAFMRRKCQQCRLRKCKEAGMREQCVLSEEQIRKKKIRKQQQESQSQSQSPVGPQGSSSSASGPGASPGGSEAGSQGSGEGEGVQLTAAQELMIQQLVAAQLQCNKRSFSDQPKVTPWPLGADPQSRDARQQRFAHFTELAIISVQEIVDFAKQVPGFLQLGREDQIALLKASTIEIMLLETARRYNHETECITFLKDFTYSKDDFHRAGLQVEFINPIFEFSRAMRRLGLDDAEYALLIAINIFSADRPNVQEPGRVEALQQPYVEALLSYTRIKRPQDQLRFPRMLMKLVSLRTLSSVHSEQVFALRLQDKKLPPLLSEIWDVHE

[12] = intracellular Trypanosoma cruzi inhibitors in host cells – cell-based, plate reader, cherry-pick samples, set 3, dose response (AID 651818); type: functional;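 further: compounds incubated with infected cells for about four days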
Paired box protein Pax-8 = Paired box protein Pax-8 (Homo sapiens, UniProt Q06710); assay: inhibitors of PAX8-driven TPO luciferase reporter, dose response, RMG-I cells, cherry-pick (AID 687027); type: functional, cell-based;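 further: luciferase reporter driven by Pax8 target thyroperoxidase promoter measured by SteadyGlo luminescence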
[13] = NIH:OVCAR-3 ovarian cancer cell cytotoxicity, dose response, PAX8 inhibitor project, plate reader, dry powder samples (AID 743044); type: functional, cell-based
[14] = cytotoxicity in OVCAR8 ovarian cancer cells, dose response, PAX8 project, cell-based, plate reader, dry powder samples (AID 743197); type: functional; settings: OVCAR-8
[15] = IGROV1 ovarian cancer cell cytotoxicity, dose response, PAX8 inhibitor project, plate reader, dry powder samples (AID 743043); type: functional, cell-based; settings: IGROV-1

Chain of Paired box protein Pax-8 (Q06710 whole entry): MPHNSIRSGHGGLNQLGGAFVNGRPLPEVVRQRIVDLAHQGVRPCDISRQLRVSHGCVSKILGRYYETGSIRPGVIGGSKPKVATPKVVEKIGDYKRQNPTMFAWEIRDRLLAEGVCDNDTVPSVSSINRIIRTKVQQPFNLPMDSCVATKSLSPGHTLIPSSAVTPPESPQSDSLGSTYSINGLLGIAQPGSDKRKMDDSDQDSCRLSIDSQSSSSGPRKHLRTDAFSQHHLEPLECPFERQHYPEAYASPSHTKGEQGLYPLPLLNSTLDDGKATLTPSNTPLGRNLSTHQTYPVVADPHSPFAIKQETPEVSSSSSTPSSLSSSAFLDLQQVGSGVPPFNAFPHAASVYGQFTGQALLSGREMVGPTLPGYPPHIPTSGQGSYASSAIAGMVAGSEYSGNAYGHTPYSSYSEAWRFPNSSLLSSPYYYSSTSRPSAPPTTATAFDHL
T2 sequence (P49327 whole entry, the tested form may be a part): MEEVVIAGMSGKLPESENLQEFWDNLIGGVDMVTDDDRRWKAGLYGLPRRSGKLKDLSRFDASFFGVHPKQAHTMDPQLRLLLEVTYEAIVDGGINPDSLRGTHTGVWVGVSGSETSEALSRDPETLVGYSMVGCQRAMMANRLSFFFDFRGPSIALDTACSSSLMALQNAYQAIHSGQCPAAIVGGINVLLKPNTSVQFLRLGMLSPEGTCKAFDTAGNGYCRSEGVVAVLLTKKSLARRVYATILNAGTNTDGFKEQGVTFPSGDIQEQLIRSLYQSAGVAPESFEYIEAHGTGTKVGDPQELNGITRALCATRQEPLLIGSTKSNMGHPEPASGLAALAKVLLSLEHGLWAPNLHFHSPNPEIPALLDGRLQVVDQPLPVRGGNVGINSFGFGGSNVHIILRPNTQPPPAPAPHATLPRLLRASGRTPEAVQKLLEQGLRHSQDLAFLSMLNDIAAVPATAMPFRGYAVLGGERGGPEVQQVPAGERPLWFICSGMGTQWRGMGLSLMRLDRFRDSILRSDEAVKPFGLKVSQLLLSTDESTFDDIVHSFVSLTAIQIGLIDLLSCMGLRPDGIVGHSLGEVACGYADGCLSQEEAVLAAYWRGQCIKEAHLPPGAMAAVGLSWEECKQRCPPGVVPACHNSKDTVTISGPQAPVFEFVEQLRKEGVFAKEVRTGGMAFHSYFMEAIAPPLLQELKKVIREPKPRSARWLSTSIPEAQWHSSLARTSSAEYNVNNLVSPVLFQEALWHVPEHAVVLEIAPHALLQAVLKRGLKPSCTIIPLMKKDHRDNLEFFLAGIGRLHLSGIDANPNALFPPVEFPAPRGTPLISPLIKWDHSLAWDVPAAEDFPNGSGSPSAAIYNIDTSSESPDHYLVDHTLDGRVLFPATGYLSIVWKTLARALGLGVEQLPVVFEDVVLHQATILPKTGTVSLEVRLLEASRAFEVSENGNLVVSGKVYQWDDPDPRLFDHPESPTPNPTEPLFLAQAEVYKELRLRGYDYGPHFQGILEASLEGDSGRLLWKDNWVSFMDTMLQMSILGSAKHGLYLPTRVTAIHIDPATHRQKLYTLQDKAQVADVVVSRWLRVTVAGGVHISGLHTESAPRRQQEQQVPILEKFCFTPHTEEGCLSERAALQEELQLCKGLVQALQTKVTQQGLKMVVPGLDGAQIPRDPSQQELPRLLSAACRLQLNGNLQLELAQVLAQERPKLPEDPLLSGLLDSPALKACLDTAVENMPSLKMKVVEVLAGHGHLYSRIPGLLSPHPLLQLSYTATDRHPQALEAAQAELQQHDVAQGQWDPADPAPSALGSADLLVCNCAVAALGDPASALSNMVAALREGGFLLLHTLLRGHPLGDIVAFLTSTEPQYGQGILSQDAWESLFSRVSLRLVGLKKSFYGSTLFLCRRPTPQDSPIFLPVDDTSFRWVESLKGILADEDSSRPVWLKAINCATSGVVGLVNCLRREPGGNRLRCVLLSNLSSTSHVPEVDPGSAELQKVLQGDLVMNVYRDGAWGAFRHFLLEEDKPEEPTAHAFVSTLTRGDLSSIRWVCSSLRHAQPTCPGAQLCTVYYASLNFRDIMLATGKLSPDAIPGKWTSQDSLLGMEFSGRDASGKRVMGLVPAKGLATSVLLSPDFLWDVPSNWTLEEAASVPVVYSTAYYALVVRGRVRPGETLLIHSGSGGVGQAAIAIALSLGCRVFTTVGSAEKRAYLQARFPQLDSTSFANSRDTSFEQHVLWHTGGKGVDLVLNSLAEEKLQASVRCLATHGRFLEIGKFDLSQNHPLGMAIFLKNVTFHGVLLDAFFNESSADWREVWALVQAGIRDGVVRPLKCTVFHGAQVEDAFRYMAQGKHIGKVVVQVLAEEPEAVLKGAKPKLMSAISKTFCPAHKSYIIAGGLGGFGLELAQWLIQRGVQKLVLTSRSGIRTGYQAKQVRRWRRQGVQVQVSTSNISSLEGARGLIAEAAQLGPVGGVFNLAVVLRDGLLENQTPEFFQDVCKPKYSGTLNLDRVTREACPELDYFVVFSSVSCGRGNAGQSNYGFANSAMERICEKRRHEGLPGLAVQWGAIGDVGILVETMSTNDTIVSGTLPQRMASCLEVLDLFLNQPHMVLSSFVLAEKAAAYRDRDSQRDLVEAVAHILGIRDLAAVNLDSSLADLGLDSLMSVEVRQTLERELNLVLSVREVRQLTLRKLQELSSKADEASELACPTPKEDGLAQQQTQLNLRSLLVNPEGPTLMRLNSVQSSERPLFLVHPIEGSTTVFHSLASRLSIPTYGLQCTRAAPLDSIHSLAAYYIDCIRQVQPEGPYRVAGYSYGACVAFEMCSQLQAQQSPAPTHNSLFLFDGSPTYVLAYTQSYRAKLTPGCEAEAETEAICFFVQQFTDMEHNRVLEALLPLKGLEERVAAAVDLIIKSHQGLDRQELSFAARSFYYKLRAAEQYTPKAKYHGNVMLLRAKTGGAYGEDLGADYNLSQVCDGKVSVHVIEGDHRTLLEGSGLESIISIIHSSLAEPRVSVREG

COc1cc(OC)cc(-c2cc3nc(C)c(CCC(=O)NCc4ccccc4)c(C)n3n2)c1
EC50 [1]: 8.43 µM (active) | EC50 [2]: 9.35 µM (active) | EC50 [3]: 9.84 µM (active) | IC50 [4]: > 80 µM (inactive)

CC(C)(C)n1ncc2c(=O)n(CC(=O)OCc3ccccc3)cnc21
EC50 [5]: 23.5 µM (active) | AC50 [6]: 2.51 µM (active) | AC50 [7]: 2.3 µM (active)

C=CCn1c(SCc2ccc(Br)cc2F)nc2cc(C(=O)O)ccc2c1=O
IC50 (Fatty acid synthase [8]): 11.4 µM (active) | IC50 (Fatty acid synthase [9]): 10.9 µM (active)

CC(C)C[C@@]12C(=O)N(c3ccc(Br)cc3)C(=O)N1[C@H](c1ccc(Br)cc1)[C@@H]1C(=O)N(C(C)(C)C)C(=O)[C@@H]12
IC50 (Fatty acid synthase [8]): 15.9 µM (active) | IC50 (Fatty acid synthase [9]): 14.6 µM (active)

N=c1oc2ccc(Cl)cc2cc1C(=O)NC1CCCCCC1
CC50 [10]: 24 µM (active)

Cc1nn(-c2nnc(NC3CCCCC3)nn2)c(C)c1Br
EC50 [11]: > 67.6 µM (inactive)

Fc1ccccc1CSc1ncnc2c1ncn2C1CCCCO1 (stereo unspecified)
EC50 [11]: > 67.6 µM (inactive)

Cc1nc2c(OCCC3CCCCC3)cccn2c1N(C)C(=O)CCC1CCCC1
AC50 [6]: 9.83 µM (active) | AC50 [7]: 7.16 µM (active)

C[C@H]1CN([C@@H](C)CO)C(=O)Cc2cc(NC(=O)Nc3cccc4ccccc34)ccc2O[C@H]1CN(C)Cc1ccc(C(=O)Nc2ccccc2N)cc1
AC50 [12]: 3.39 µM (active)

Cc1noc(C)c1S(=O)(=O)Nc1ccc2c(c1)CC(=O)N([C@@H](C)CO)C[C@@H](C)[C@@H](CN(C)Cc1ccc(C(=O)Nc3ccccc3N)cc1)O2
AC50 [12]: 2.56 µM (active)

C[C@@H]1CN([C@@H](C)CO)C(=O)Cc2cc(NS(=O)(=O)c3ccc(F)cc3)ccc2O[C@@H]1CN(C)S(=O)(=O)c1ccc(Cl)cc1
AC50 [12]: 3.3 µM (active)

C[C@H]1CN([C@@H](C)CO)C(=O)Cc2cc(NC(=O)Nc3ccc4c(c3)OCO4)ccc2O[C@@H]1CN(C)Cc1ccc(C(F)(F)F)cc1
AC50 [12]: 4.86 µM (active)

C[C@@H]1CCCCO[C@@H](CN(C)Cc2ccncc2)[C@H](C)CN([C@@H](C)CO)C(=O)c2cc(NC(=O)Nc3ccc(C(F)(F)F)cc3)ccc2O1
AC50 (Paired box protein Pax-8): 5.52 µM (active) | AC50 [13]: 35.8 µM (active) | AC50 [14]: > 70 µM (inactive)

C[C@@H]1CN([C@H](C)CO)C(=O)c2cc(NS(=O)(=O)c3ccc(Cl)cc3)ccc2O[C@@H](C)CCCCO[C@H]1CN(C)Cc1ccc2c(c1)OCO2
AC50 (Paired box protein Pax-8): 10.2 µM (active) | AC50 [13]: 17.5 µM (active) | AC50 [15]: 49.9 µM (active) | AC50 [14]: 51.2 µM (active)

C[C@@H]1CCCCO[C@@H](CN(C)Cc2ccc(C(F)(F)F)cc2)[C@H](C)CN([C@@H](C)CO)C(=O)c2cc(NC(=O)Cc3ccccc3)ccc2O1
AC50 (Paired box protein Pax-8): 7.16 µM (active) | AC50 [13]: 19.8 µM (active) | AC50 [15]: 25.7 µM (active) | AC50 [14]: 33.3 µM (active)
